Measured values as given in patent publication US20240092837A1, “Novel Peptide Carrier Compositions” (The Regents of the University of Colorado, A Body Corporate, priority 2021, published 2024).

System: ARPE-19 cells
Assay: Intracellular uptake of FITC labeled TAT and PHHP 1 peptides in ARPE-19 cells (fluorometry)
Assay type: cell-based, human
Details: 10 and 5 μM
Description: FIG. 9 are graphs of quantitation of in vitro cell uptake study of FITC labeled PHIP (P 1) and TAT peptides in ARPE-19 cells. Cells were grown to a 10,000 well density in 96 well fluorescent imaging plates with a transparent bottom. The ARPE-19 cells required an additional 48 hrs, to reach this cell density. Cells were incubated with 200 μl of 10 and 5 μM/ml FITC labeled PHHP (P 1) and TAT peptides and uptake was continued for 1 hour at 37° C. Following uptake; cells were washed three times with acidic PBS (pH 5.0) and normal PBS (pH 7.4) at 37° C. Cells were lysed using 0.1 M NaOH and quantified using a fluorometry method. Panel A illustrates uptake of peptides by ARPE-19 cells and absolute amount, and panel B illustrates the percentage uptake of peptides at different concentrations.
The cell uptake study of FITC labeled PHHP peptides in an ARPE-19 cell line was studied using fluorometry. ARPE —19 cells were grown in a DMEM/F12 medium. A cell density of 10,000 cells was plated into a 96 well plate for each cell lines, 48 hours before the start of the uptake study. […] All the samples were brought to room temperature and fluorescence spectra were recorded at an excitation wavelength of 493 nm and emission wavelength of 520 nm. The percentage uptake and absolute uptake were determined for each peptide at different concentrations and plotted as a bar graph for comparative analyses in FIG. 3.
Intracellular uptake of TAT and PHHP 1 peptides in ARPE-19 cells. […] All the samples were then brought to room temperature and fluorescence intensities were recorded at an excitation wavelength of 493 nm and emission wavelength of 520 nm.
Percentage uptake and statistical analyses at different concentrations were compared. […] The percentage uptake of the PHHP 1 peptide was determined to be ˜15-17, whereas ˜3-4% for TAT peptide. […] Furthermore, these proteins in their PHHP 1 tagged and un-tagged forms were evaluated for intracellular uptake properties in ARPE-19, A549, and hCET cells lines and for transcellular migration behavior across bovine and rabbit eyes cornea following topical dosing (FIG. 9).

PHHP 1: positive, helical, hydrophobic peptide variant, sequence WWFWIWFWWGPGRRKRRKRRR [SEQ ID 1] (Sequence is synthesized)
fold improvement in the uptake relative to the TAT peptide (1 hour uptake at 37° C.): 4-7 fold | uptake behavior (percentage uptake versus concentration) (FITC labeled peptide, 1 hour): concentration dependence | percentage uptake (FITC labeled peptide, 1 hour uptake at 37° C.): 15-17%
